The values below come from BindingDB's records for PubMed 36327695 (n/a, 2022).

The target in experiment [1] is T1, Maltase-glucoamylase (Homo sapiens, UniProt O43451). In words: Inhibition of alpha-glucosidase (unknown origin) using pNPG as substrate preincubated with enzyme for 15 mins followed by substrate addition and measured after 10 mins by microplate reader analysis.
Experiment [2] addresses T1, Maltase-glucoamylase. In words: Non-competitive inhibition of alpha-glucosidase (unknown origin) using pNPG as substrate preincubated with enzyme for 15 mins followed by substrate addition and measured for 15 mins by Dixon plot analysis.

T1 sequence (O43451 whole entry): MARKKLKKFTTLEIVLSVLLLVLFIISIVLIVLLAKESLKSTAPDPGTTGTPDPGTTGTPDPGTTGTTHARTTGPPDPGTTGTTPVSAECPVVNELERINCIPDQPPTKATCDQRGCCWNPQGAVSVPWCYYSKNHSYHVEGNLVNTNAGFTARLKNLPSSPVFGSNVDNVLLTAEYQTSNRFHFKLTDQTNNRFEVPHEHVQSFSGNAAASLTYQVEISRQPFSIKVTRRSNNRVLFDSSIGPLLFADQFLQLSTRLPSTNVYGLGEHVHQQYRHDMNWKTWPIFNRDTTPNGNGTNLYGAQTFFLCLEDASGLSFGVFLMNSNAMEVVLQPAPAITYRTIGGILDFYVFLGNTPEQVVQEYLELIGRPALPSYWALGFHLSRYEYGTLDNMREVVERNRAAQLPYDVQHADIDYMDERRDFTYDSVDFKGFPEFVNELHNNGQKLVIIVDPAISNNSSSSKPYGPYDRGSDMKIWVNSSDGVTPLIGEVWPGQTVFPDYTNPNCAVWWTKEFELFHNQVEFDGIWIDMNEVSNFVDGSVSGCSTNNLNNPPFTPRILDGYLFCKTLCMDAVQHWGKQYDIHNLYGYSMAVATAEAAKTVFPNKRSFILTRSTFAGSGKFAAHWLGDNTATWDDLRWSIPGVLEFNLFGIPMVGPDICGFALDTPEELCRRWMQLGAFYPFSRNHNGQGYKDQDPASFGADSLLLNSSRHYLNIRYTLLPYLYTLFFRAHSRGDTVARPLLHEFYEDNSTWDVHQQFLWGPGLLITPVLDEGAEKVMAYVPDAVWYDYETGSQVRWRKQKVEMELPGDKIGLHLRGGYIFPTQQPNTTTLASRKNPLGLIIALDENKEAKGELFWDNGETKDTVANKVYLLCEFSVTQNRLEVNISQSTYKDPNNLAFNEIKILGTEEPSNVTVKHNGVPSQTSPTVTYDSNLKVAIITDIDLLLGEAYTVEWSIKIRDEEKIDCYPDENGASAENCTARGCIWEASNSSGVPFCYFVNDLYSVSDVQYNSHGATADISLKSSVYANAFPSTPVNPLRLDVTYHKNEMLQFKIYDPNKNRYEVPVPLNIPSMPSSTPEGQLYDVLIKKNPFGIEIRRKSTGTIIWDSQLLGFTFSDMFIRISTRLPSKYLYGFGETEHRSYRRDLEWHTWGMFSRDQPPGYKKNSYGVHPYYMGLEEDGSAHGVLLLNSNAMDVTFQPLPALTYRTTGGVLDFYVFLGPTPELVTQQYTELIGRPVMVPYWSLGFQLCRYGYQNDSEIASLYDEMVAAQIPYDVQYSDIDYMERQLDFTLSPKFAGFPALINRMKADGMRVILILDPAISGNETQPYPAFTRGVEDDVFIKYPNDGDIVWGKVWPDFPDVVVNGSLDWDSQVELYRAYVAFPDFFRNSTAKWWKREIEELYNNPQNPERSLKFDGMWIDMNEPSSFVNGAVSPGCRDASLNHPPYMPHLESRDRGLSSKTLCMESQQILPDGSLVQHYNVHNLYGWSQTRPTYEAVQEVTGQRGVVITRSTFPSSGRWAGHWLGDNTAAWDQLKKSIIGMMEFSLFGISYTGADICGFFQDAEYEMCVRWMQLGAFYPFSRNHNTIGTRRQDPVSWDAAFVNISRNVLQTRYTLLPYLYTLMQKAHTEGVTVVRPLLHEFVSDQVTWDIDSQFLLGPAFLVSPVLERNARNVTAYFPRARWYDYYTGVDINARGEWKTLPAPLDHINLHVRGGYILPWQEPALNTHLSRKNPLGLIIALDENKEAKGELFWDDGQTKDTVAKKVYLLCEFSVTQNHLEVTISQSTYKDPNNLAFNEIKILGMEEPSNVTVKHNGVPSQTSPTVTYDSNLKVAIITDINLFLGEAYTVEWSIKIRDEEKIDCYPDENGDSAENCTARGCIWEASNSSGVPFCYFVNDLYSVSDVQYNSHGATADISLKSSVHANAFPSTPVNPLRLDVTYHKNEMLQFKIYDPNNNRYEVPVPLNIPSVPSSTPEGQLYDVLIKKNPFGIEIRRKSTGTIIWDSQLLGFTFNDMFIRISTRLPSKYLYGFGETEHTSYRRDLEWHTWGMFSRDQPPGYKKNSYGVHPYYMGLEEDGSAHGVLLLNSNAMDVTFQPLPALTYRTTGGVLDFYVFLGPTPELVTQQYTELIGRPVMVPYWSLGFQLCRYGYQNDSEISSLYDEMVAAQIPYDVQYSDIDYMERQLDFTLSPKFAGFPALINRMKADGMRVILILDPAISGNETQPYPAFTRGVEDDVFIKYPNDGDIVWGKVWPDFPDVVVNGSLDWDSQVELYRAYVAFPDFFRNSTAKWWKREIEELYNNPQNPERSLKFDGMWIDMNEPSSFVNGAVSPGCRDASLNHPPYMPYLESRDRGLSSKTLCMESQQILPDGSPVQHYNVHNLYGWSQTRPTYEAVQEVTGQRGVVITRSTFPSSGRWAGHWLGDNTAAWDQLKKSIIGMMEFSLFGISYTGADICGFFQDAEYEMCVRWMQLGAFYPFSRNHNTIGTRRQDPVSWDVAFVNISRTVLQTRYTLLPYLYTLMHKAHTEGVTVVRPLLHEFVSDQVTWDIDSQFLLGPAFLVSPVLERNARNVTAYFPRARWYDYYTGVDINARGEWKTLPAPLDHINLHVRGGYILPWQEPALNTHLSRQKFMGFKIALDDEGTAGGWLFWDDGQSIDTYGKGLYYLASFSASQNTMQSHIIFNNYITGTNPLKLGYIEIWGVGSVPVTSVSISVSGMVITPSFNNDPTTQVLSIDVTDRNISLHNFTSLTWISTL

On to `C=CCc1cc(-c2ccc(O)c(CC=C)c2)c(O)c(C(c2ccc(OC)cc2)N2CCCCC2)c1` (configuration not stated), for which, on Maltase-glucoamylase [1], the IC50 – broadly, the concentration that gives 50% inhibition – turned out to be 30.4 µM.

In the case of `C=CCc1cc(-c2ccc(O)c(CC=C)c2)c(O)c(C(c2cc(Cl)cc(Cl)c2)N2CCCCC2)c1` (configuration not stated), inhibition against Maltase-glucoamylase [1] was half-maximal at 23.5 µM (IC50).

Consider `C=CCc1cc(-c2ccc(O)c(CC=C)c2)c(O)c(C(c2cc(Cl)cc(Cl)c2)N2CCC(C)CC2)c1` (configuration not stated), for which, at Maltase-glucoamylase [2], the Ki (usually the equilibrium dissociation constant of an inhibitor or competing ligand from its target) amounted to 1.7 µM. In addition, the IC50 against Maltase-glucoamylase [1] was 14.9 µM.

`C=CCc1cc(-c2ccc(O)c(CC=C)c2)c(O)c(C(c2cc(Cl)cc(Cl)c2)N2CCOCC2)c1` (configuration not stated): on Maltase-glucoamylase [2], the Ki is 3.27 µM. Besides, the IC50 against Maltase-glucoamylase [1] worked out at 13.8 µM.

On Maltase-glucoamylase [1], `C=CCc1cc(-c2cc(CC=C)c(O)c(C(c3ccc(Cl)cc3)N3CCOCC3)c2)c(O)c(C(c2ccc(Cl)cc2)N2CCOCC2)c1` (configuration not stated) gave an IC50 of 18.6 µM.
